Results published in PubChem BioAssay AID1845200 (Molecular Pharmacology Branch, DTP, NCI, 2023).

Test system: ASPS-1 complex tumor spheroids, viability
Test: Anticancer human tumor ASPS-1 cell line growth inhibition;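 also: spheroids exposed to agents for 7 days after 3 days of growth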;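 as to viability, T/C: 100% = DMSO vehicle treated spheroids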
Conditions: for viability, T/C: stronger effect = lower value
Description: Multicellular complex tumor spheroid response to DNA repair inhibitors in combination with DNA-damaging drugs
This study explores the anticancer activities of DNA-damaging drugs and inhibitors of DNA damage repair, both as single agents and in combinations. Complex tumor spheroids comprised of malignant cells, endothelial cells and mesenchymal stem cells served as an in vitro model for human solid tumors. This model system incorporates physiologically relevant features and patient-derived or established malignant cell lines with clinically relevant genetic alterations from many tumor types. Twenty-six patient-derived or established malignant cell lines were evaluated representing sarcoma, melanoma, small cell lung cancer (SCLC), non-small cell lung cancer (NSCLC), as well as bladder, ovarian and pancreatic cancers. The concentration ranges selected for each drug and investigational agent were based upon clinically achievable concentrations if the clinical Cmax of the agent was known.
Compounds. The drugs and compounds olaparib (NSC753686), talazoparib (NSC767125), berzosertib (NSC777718), elimusertib (NSC800525), nedisertib (NSC802822), VX-984 (NSC792969), AZD-1390 (NSC803789), temozolomide (NSC362856), topotecan (NSC609699), trabectedin (NSC813783), staurosporine (NSC755774), and gemcitabine (NSC613327) were obtained from the National Cancer Institute (NCI) Developmental Therapeutics Program Chemical Repository. The FDA-approved anticancer drug set is available from the Developmental Therapeutics Program at https://dtp.cancer.gov/organization/dscb/obtaining/available_plates.htm. […] The stock solutions were prepared in dimethyl sulfoxide (DMSO, Sigma-Aldrich, St. Louis, MO, cat. D2650) at 400-fold the tested concentration and stored at -70 degrees C. Prior to their use, the stock solutions were diluted in fresh medium and the final DMSO concentration in the assay was 0.25% (v/v). All drugs and investigational agents were tested over a range starting from a high concentration at or near the clinical Cmax and decreasing in half-log increments. If the clinical Cmax for an agent had not been determined, the highest concentration tested was 10 microM.
Cell Lines. The patient-derived cancer cell (PDC) lines: 156681-154-R-J1-PDC, 283228-195-R-J1-PDC, 287954-098-R-J1-PDC, 292921-168-R-J2-PDC, 349418-098-R-PDC, 425362-245-T-J1-PDC, 556581-035-R-J1-PDC, and BL0293-F563-PDC were received from the NCI Patient-Derived Models Repository (PDMR, https://pdmr.cancer.gov). The established cell lines HS-SY-2 (RRID:CVCL_8719), MPNST, and SYO-1 (RRID:CVCL_7146) were obtained from the Sloan Kettering Institute. The alveolar soft parts sarcoma cell line ASPS-1 (RRID:CVCL_S738) was established at the NCI and grown from internal seed stocks. The following established cell lines were purchased from the American Type Culture Collection (ATCC, Manassas, VA): G-401 (ATCC, cat. CRL-1441, RRID:CVCL_0270), SW982 (ATCC, cat. HTB-93, RRID:CVCL_1734), VA-ES-BJ (ATCC, cat. CRL-2138, RRID:CVCL_1785), NCI-H719 (ATCC, cat. CRL-5837, RRID:CVCL_1582), NCI-H196 (ATCC, cat. CRL-5823, RRID:CVCL_1509), NCI-H841 (ATCC, cat. CRL-5845, RRID:CVCL_1595), NCI-H1618 (ATCC, cat. CRL-5879, RRID:CVCL_1480), NCI-H1876 (ATCC, cat. CRL-5902, RRID:CVCL_1503), DMS 114 (ATCC, cat. CRL-2066; RRID:CVCL_1174), NCI-H211 (ATCC, cat. CRL-5824; RRID:CVCL_1529), and SW 1271 (ATCC, cat. CRL-2177, RRID:CVCL_1716). The small cell lung cancer cell line COR-L88 was purchased from Sigma-Aldrich (cat. 92031917-1VL, RRID:CVCL_1141). The non-small cell lung cancer cell lines NCI-H226 (RRID:CVCL_1544) and NCI-H322M (RRID:CVCL_1557) were established at the NCI and grown from internal seed stocks. Pooled donor human umbilical vein endothelial cells (HUVEC, Lonza, cat. CC-2519) and human mesenchymal stem cells (hMSC, Lonza, cat. PT-2501) were purchased from Lonza (Walkersville, MD).
Cell Culture. All cells were maintained in an incubator at 37 degrees C and 5% CO2 with 95% humidity. […]

[1] = curve of first compound, second compound 0.003 µM
[2] = curve of first compound, second compound 0.00949 µM
[3] = curve of first compound, second compound 0.03 µM
[4] = curve of first compound, second compound 0.0949 µM
[5] = curve of first compound, second compound 0.3 µM
[6] = second compound 0.003 µM, first compound 0.00949 µM
[7] = second compound 0.003 µM, first compound 0.03 µM
[8] = second compound 0.003 µM, first compound 0.0949 µM
[9] = second compound 0.003 µM, first compound 0.3 µM
[10] = second compound 0.003 µM, first compound 0.949 µM
[11] = second compound 0.003 µM, first compound 3 µM
[12] = second compound 0.00949 µM, first compound 0.00949 µM
[13] = second compound 0.00949 µM, first compound 0.03 µM
[14] = second compound 0.00949 µM, first compound 0.0949 µM
[15] = second compound 0.00949 µM, first compound 0.3 µM
[16] = second compound 0.00949 µM, first compound 0.949 µM
[17] = second compound 0.00949 µM, first compound 3 µM
[18] = second compound 0.03 µM, first compound 0.00949 µM
[19] = second compound 0.03 µM, first compound 0.03 µM
[20] = second compound 0.03 µM, first compound 0.0949 µM
[21] = second compound 0.03 µM, first compound 0.3 µM
[22] = second compound 0.03 µM, first compound 0.949 µM
[23] = second compound 0.03 µM, first compound 3 µM
[24] = second compound 0.0949 µM, first compound 0.00949 µM
[25] = second compound 0.0949 µM, first compound 0.03 µM
[26] = second compound 0.0949 µM, first compound 0.0949 µM
[27] = second compound 0.0949 µM, first compound 0.3 µM
[28] = second compound 0.0949 µM, first compound 0.949 µM
[29] = second compound 0.0949 µM, first compound 3 µM
[30] = second compound 0.3 µM, first compound 0.00949 µM
[31] = second compound 0.3 µM, first compound 0.03 µM
[32] = second compound 0.3 µM, first compound 0.0949 µM
[33] = second compound 0.3 µM, first compound 0.3 µM
[34] = second compound 0.3 µM, first compound 0.949 µM
[35] = second compound 0.3 µM, first compound 3 µM

| Compound | IC50 [1] | IC50 [2] | IC50 [3] | IC50 [4] | IC50 [5] | viability, T/C [8] | viability, T/C [9] | viability, T/C [10] | viability, T/C [11] | viability, T/C [14] | viability, T/C [15] | viability, T/C [16] | viability, T/C [17] | viability, T/C [20] | viability, T/C [21] | viability, T/C [22] | viability, T/C [23] | viability, T/C [26] | viability, T/C [27] | viability, T/C [28] | also measured |
| --- | --- | --- | --- | --- | --- | --- | --- | --- | --- | --- | --- | --- | --- | --- | --- | --- | --- | --- | --- | --- | --- |
| Cn1nnc2c(C(N)=O)ncn2c1=O |  |  |  |  |  |  |  |  |  |  |  |  |  |  |  |  |  |  |  |  | viability, T/C (compound 1 µM): 98.1% [middle of 10 runs]; viability, T/C (compound 3.16 µM): 103% [middle of 10 runs]; viability, T/C (compound 10 µM): 92% [middle of 10 runs]; viability, T/C (compound 31.6 µM): 81% [middle of 10 runs]; viability, T/C (compound 100 µM): 70.1% [middle of 10 runs]; IC50 (compound alone, run of 11/07/2019): > 100000 nM |
| CNCc1ccc(-c2cc(-c3nc(-c4ccc(S(=O)(=O)C(C)C)cc4)cnc3N)on2)cc1 + CC[C@@]1(O)C(=O)OCc2c1cc1n(c2=O)Cc2cc3c(CN(C)C)c(O)ccc3nc2-1 | 478 nM | 412 nM | 256 nM | 19.6 nM | < 9.49 nM | 98.8% | 60.8% | 30.8% | 5.94% | 107% | 54.5% | 30.2% | 5.23% | 90.5% | 41.9% | 25.3% | 10.3% | 41.8% | 29% | 22.4% | viability, T/C [6]: 102%; viability, T/C [7]: 103%; viability, T/C [12]: 104%; viability, T/C [13]: 108%; viability, T/C [18]: 97.1%; viability, T/C [19]: 105%; viability, T/C [24]: 54.1%; viability, T/C [25]: 45.6%; viability, T/C [29]: 2.96%; viability, T/C [30]: 44.9%; viability, T/C [31]: 38.3%; viability, T/C [32]: 26.9%; viability, T/C [33]: 23.4%; viability, T/C [34]: 23.7%; viability, T/C [35]: 7.06% |
| Cn1ncnc1[C@H]1c2n[nH]c(=O)c3cc(F)cc(c23)N[C@@H]1c1ccc(F)cc1 + CC[C@@]1(O)C(=O)OCc2c1cc1n(c2=O)Cc2cc3c(CN(C)C)c(O)ccc3nc2-1 | > 3000 nM | > 3000 nM | 2610 nM | < 9.49 nM | < 9.49 nM | 101% | 98.4% | 98.8% | 76.5% | 100% | 95.7% | 86.6% | 69.5% | 67.4% | 61.4% | 56.6% | 49% | 43.5% | 38.2% | 38% | viability, T/C [6]: 97.5%; viability, T/C [7]: 98.3%; viability, T/C [12]: 103%; viability, T/C [13]: 92%; viability, T/C [18]: 78.4%; viability, T/C [19]: 75.9%; viability, T/C [24]: 47%; viability, T/C [25]: 40.9%; viability, T/C [29]: 34.1%; viability, T/C [30]: 46.9%; viability, T/C [31]: 41.9%; viability, T/C [32]: 40%; viability, T/C [33]: 41.3%; viability, T/C [34]: 40.1%; viability, T/C [35]: 39% |
| O=C(c1cc(Cc2n[nH]c(=O)c3ccccc23)ccc1F)N1CCN(C(=O)C2CC2)CC1 + CC[C@@]1(O)C(=O)OCc2c1cc1n(c2=O)Cc2cc3c(CN(C)C)c(O)ccc3nc2-1 | > 30000 nM | > 30000 nM | > 30000 nM | < 94.9 nM | < 94.9 nM | 114% | 107% | 101% | 105% | 102% | 106% | 103% | 105% | 84.9% | 88.8% | 90.3% | 77.4% | 45.8% | 50% | 49% | viability, T/C (second compound 0.003 µM, first compound 9.49 µM): 104%; viability, T/C (second compound 0.003 µM, first compound 30 µM): 97.3%; viability, T/C (second compound 0.00949 µM, first compound 9.49 µM): 101%; viability, T/C (second compound 0.00949 µM, first compound 30 µM): 93.5%; viability, T/C (second compound 0.03 µM, first compound 9.49 µM): 71.4%; viability, T/C (second compound 0.03 µM, first compound 30 µM): 66.1%; viability, T/C [29]: 48.6%; viability, T/C (second compound 0.0949 µM, first compound 9.49 µM): 40.1%; viability, T/C (second compound 0.0949 µM, first compound 30 µM): 49.7%; viability, T/C [32]: 49.1%; viability, T/C [33]: 45.4%; viability, T/C [34]: 43.1%; viability, T/C [35]: 44.2%; viability, T/C (second compound 0.3 µM, first compound 9.49 µM): 35.6%; viability, T/C (second compound 0.3 µM, first compound 30 µM): 42.2% |
